Source: publication PMC10999543, “Identification of kinase modulators as host-directed therapeutics against intracellular methicillin-resistant Staphylococcus aureus” (Frontiers in Cellular and Infection Microbiology, 2024)
Read-outs that look alike come from different tables or passages of the source.

Key:
[1] = tested on: intracellular MRSA; format: cell-based, Staphylococcus aureus; details: for %GFP+ rep 1 / z-scoreMRSA+ rep 1: replicate 1; for %GFP+ rep 2 / z-scoreMRSA+ rep 2: replicate 2; for %GFP+ rep 3 / z-scoreMRSA+ rep 3: replicate 3; for z-scoreMRSA+ mean: mean of 3 replicates; on %GFP+ rep 1: test concentration or dose not given here; on %GFP+ rep 2: test concentration or dose not given here; on %GFP+ rep 3: test concentration or dose not given here; on effect: test concentration or dose not given here; on z-scoreMRSA+ mean: test concentration or dose not given here; on z-scoreMRSA+ rep 1: test concentration or dose not given here; on z-scoreMRSA+ rep 2: test concentration or dose not given here; on z-scoreMRSA+ rep 3: test concentration or dose not given here
How it was run: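 Values are z-scores: GFP-positive HeLa percentage and event count per well against plate statistics, minus the mean DMSO z-score. Wells deviating two-fold from controls were left out of plate means. Infection was at a mean MOI of 6.8, with an overnight compound exposure.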

[2] = tested on: HeLa cells; assay: Compound screen by flow cytometry: HeLa cell count as surrogate readout of cell viability (z-scoreHeLa); format: cell-based, human; further: test concentration or dose not given here
How it was run: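 The viability surrogate was the count of fixed HeLa cells by flow cytometry, converted to z-scores against DMSO controls with values deviating two-fold excluded. Before counting, cells had been infected with MRSA for 1 h and cleared of extracellular bacteria with gentamicin. They were then exposed overnight to kinase inhibitors in triplicate.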

[3] = PKIS compound screen raw data, MRSA-infected HeLa cells
[4] = PKIS compound screen, MRSA-infected HeLa cells
[5] = PKIS compound screen, Yes/No call
[6] = PKIS compound screen, Yes/No call (effect without cell death)
[7] = PKIS compounds raw data, MRSA-infected HeLa cells
[8] = PKIS compound screen raw data, HeLa cell count, replicate 1
[9] = PKIS compound screen raw data, HeLa cell count, replicate 2
[10] = PKIS compound screen raw data, HeLa cell count, replicate 3
[11] = PKIS compound screen, mean of 3 replicates
[12] = PKIS compound screen, replicate 1
[13] = PKIS compound screen, replicate 2
[14] = PKIS compound screen, replicate 3
[15] = PKIS compounds raw data, replicate 1, HeLa cell count
[16] = PKIS compounds raw data, replicate 2, HeLa cell count
[17] = PKIS compounds raw data, replicate 3, HeLa cell count
[18] = Yes/No: effect without cell death
[19] = compound screen, MRSA-infected HeLa cells
[20] = compound screen, HeLa cell count, mean of 3 replicates
[21] = compound screen, HeLa cell count, replicate 1
[22] = compound screen, HeLa cell count, replicate 2
[23] = compound screen, HeLa cell count, replicate 3

Cc1ccc(NC(=O)c2ccnc(N3CCN(C)CC3)c2)cc1-c1ccc(C(=O)NCC2CC2)cc1 [GW775604X]
%GFP+ rep 1 [1, 3]: 22.9% | %GFP+ rep 2 [1, 3]: 25.3% | %GFP+ rep 3 [1, 3]: 27.3% | z-scoreMRSA+ mean [1, 4]: 1.46 | z-scoreMRSA+ rep 1 [1, 4]: 1.10 | z-scoreMRSA+ rep 2 [1, 4]: 1.61 | z-scoreMRSA+ rep 3 [1, 4]: 1.66 | effect [1, 5]: No | hit [1, 6]: No | effect ([1]; PKIS compound screen, Yes/No call on z-scoreMRSA+): No | z-scoreMRSA+ mean ([1]; PKIS compound screen): -0.35 | z-scoreMRSA+ rep 1 ([1]; PKIS compound screen): -0.34 | z-scoreMRSA+ rep 2 ([1]; PKIS compound screen): -0.43 | z-scoreMRSA+ rep 3 ([1]; PKIS compound screen): -0.27 | %GFP+ rep 1 [1, 7]: 25.3% | %GFP+ rep 2 [1, 7]: 23.8% | %GFP+ rep 3 [1, 7]: 25.8% | cell count rep 1 [2, 8]: 20638 | cell count rep 2 [2, 9]: 17919 | cell count rep 3 [2, 10]: 18503 | z-scoreHeLa mean ([2]; PKIS compound screen, HeLa cell count, mean of 3 replicates): -0.99 | z-scoreHeLa rep 1 ([2]; PKIS compound screen, HeLa cell count, replicate 1): -1.62 | z-scoreHeLa rep 2 ([2]; PKIS compound screen, HeLa cell count, replicate 2): -1.26 | z-scoreHeLa rep 3 ([2]; PKIS compound screen, HeLa cell count, replicate 3): -0.08 | cell death [2, 5]: No | cell death ([2]; PKIS compound screen, Yes/No call on z-scoreHeLa): No | z-scoreHeLa mean [2, 11]: 0.09 | z-scoreHeLa rep 1 [2, 12]: -0.44 | z-scoreHeLa rep 2 [2, 13]: 1.03 | z-scoreHeLa rep 3 [2, 14]: -0.32 | cell count rep 1 [2, 15]: 5307 | cell count rep 2 [2, 16]: 7562 | cell count rep 3 [2, 17]: 5095

Cc1ccnc2ccc(-c3sc(N)nc3-c3ccccn3)nc12 [GW777257X]
%GFP+ rep 1 [1, 3]: 20.9% | %GFP+ rep 2 [1, 3]: 19.0% | %GFP+ rep 3 [1, 3]: 19.9% | effect ([1]; Yes/No call from z-scoreMRSA+): No | hit [1, 18]: No | z-scoreMRSA+ mean [1, 19]: -0.86 | z-scoreMRSA+ rep 1 [1, 19]: -1.02 | z-scoreMRSA+ rep 2 [1, 19]: -0.88 | z-scoreMRSA+ rep 3 [1, 19]: -0.69 | cell count rep 1 [2, 8]: 3590 | cell count rep 2 [2, 9]: 3185 | cell count rep 3 [2, 10]: 3623 | cell death ([2]; Yes/No call from z-scoreHeLa): No | z-scoreHeLa mean [2, 20]: -0.81 | z-scoreHeLa rep 1 [2, 21]: -0.55 | z-scoreHeLa rep 2 [2, 22]: -0.86 | z-scoreHeLa rep 3 [2, 23]: -1.02

Clc1ccc(CNc2nccc(-c3cnn4ncccc34)n2)cc1 [GW781673X]
%GFP+ rep 1 [1, 7]: 13.1% | %GFP+ rep 2 [1, 7]: 14.6% | %GFP+ rep 3 [1, 7]: 14.3% | effect ([1]; Yes/No call from z-scoreMRSA+): No | hit [1, 18]: No | z-scoreMRSA+ mean [1, 19]: -0.04 | z-scoreMRSA+ rep 1 [1, 19]: -0.0227 | z-scoreMRSA+ rep 2 [1, 19]: 0.37 | z-scoreMRSA+ rep 3 [1, 19]: -0.47 | cell count rep 1 [2, 15]: 3767 | cell count rep 2 [2, 16]: 3267 | cell count rep 3 [2, 17]: 5990 | cell death ([2]; Yes/No call from z-scoreHeLa): No | z-scoreHeLa mean ([2]; human): -0.71 | z-scoreHeLa rep 1 ([2]; human): -0.91 | z-scoreHeLa rep 2 ([2]; human): -0.76 | z-scoreHeLa rep 3 ([2]; human): -0.46

COc1cccc(-n2ncc3c(N/N=C/c4ccncc4)ncnc32)c1 [GW784752X]
effect [1, 5]: No | hit [1, 6]: No | z-scoreMRSA+ mean ([1]; PKIS compound screen): -0.71 | z-scoreMRSA+ rep 1 ([1]; PKIS compound screen): -0.44 | z-scoreMRSA+ rep 2 ([1]; PKIS compound screen): -0.63 | z-scoreMRSA+ rep 3 ([1]; PKIS compound screen): -1.06 | %GFP+ rep 1 [1, 7]: 11.8% | %GFP+ rep 2 [1, 7]: 11.6% | %GFP+ rep 3 [1, 7]: 12.3% | cell death [2, 5]: No | z-scoreHeLa mean [2, 11]: -0.20 | z-scoreHeLa rep 1 [2, 12]: -0.77 | z-scoreHeLa rep 2 [2, 13]: -0.44 | z-scoreHeLa rep 3 [2, 14]: 0.60 | cell count rep 1 [2, 15]: 3928 | cell count rep 2 [2, 16]: 3683 | cell count rep 3 [2, 17]: 8225

Cc1c2ccc(N(C)c3ccnc(Nc4cccc(S(N)(=O)=O)c4)n3)cc2nn1Cc1ccccc1 [GW787226A]
%GFP+ rep 1 [1, 3]: 21.6% | %GFP+ rep 2 [1, 3]: 20.6% | %GFP+ rep 3 [1, 3]: 18.5% | effect ([1]; Yes/No call from z-scoreMRSA+): No | hit [1, 18]: No | z-scoreMRSA+ mean [1, 19]: -0.82 | z-scoreMRSA+ rep 1 [1, 19]: -0.86 | z-scoreMRSA+ rep 2 [1, 19]: -0.49 | z-scoreMRSA+ rep 3 [1, 19]: -1.11 | cell count rep 1 [2, 8]: 1356 | cell count rep 2 [2, 9]: 1496 | cell count rep 3 [2, 10]: 1271 | cell death ([2]; Yes/No call from z-scoreHeLa): No | z-scoreHeLa mean [2, 20]: -2.28 | z-scoreHeLa rep 1 [2, 21]: -2.16 | z-scoreHeLa rep 2 [2, 22]: -2.16 | z-scoreHeLa rep 3 [2, 23]: -2.51

O=C(c1ccc(-c2cc(-c3c[nH]nc3-c3ccccn3)ccn2)cc1)N1CCCC1 [GW792479X]
%GFP+ rep 1 [1, 3]: 20.2% | %GFP+ rep 2 [1, 3]: 21.2% | %GFP+ rep 3 [1, 3]: 21.9% | effect ([1]; Yes/No call from z-scoreMRSA+): No | hit [1, 18]: No | z-scoreMRSA+ mean [1, 19]: 0.35 | z-scoreMRSA+ rep 1 [1, 19]: 0.38 | z-scoreMRSA+ rep 2 [1, 19]: 0.49 | z-scoreMRSA+ rep 3 [1, 19]: 0.18 | cell count rep 1 [2, 8]: 29405 | cell count rep 2 [2, 9]: 27776 | cell count rep 3 [2, 10]: 26310 | cell death ([2]; Yes/No call from z-scoreHeLa): No | z-scoreHeLa mean [2, 20]: 0.58 | z-scoreHeLa rep 1 [2, 21]: -0.13 | z-scoreHeLa rep 2 [2, 22]: 0.43 | z-scoreHeLa rep 3 [2, 23]: 1.44
